The text below walks through data of article PMC4109680, “Identification and Preclinical Pharmacology of the γ-Secretase Modulator BMS-869780” (International Journal of Alzheimer's Disease, 2014).

In experiment [1] the test system is mNotch1Δ1865. Briefly: Western blot of NICD and mNotch1Δ1865 in transfected HeLa cell cultures. The settings on record: BMS-299897 at 1 μM, BMS-433796 at 0.3 μM. The experiment is classed as cell-based. As for the experimental part: (§1) Inhibition of Notch signaling in cultured cells using a mouse-derived truncated Notch1 transgene, mNotch-ΔE [67], has been described in detail previously. Western blots for mNotchΔ1865 and NICD using 9E10 anti-c-myc monoclonal were carried out as previously described.
(§2) The effect of BMS-869780 on Notch processing was evaluated using transcriptional reporter assays and western blotting of NICD levels. HeLa cell cultures were transfected with mNotch1ΔE and CBF1-luciferase reporter constructs and treated with BMS-869780. In most replicates of this experiment, inhibition of luciferase reporter occurred with IC50 > 10 μM. […] To further evaluate the effect of BMS-869780 on Notch processing, western blots of cell cultures were carried out using mNotch1Δ1865, a truncated version of mNotch1ΔE that facilitates separation of NICD product from mNotch1 substrate on western blots. HeLa cell cultures were transfected with mNotch1Δ1865 and treated overnight with compounds before western blotting. […] Furthermore, the GSIs caused an increased level of mNotch1Δ1865 substrate, most likely due to inhibition of its turnover by γ-secretase, as previously noted by Blat et al..
(§3) (b) HeLa cell cultures were transfected with mNotchΔ1865, treated with compounds overnight, and cell extracts were evaluated by western blot using anti-c-myc-HRP conjugate. Lanes 1 and 9: DMSO (0.1%) vehicle. Lane 2: BMS-299897 at 1 μM. Lane 3: BMS-433796 at 0.3 μM. Lanes 4–8: BMS-869780 at 0.1, 0.3, 1, 3, and 10 μM, respectively.
A general note: Immunoblotting shows a protein as a band on a membrane.

The test system of experiment [2] is Aβ1-42 (H4-APPsw). Briefly: Aβ1-42 time-resolved fluorescence immunoassay in H4-APPsw cell cultures. The experiment is classed as cell-based, human. The conditions noted are these: Homo sapiens; H4-APPsw cultures treated overnight. As for the experimental part: (§4) H4-APPsw cell cultures were maintained on Dulbecco's modified Eagle's medium (DMEM) supplemented with L-glutamine (2 mM), fetal bovine serum (10%), and G418 (100 μg/mL). […] Aβ1-42 and Aβ1-40 assays, and Notch inhibition assays, were carried out as described previously. Mouse embryonic fibroblasts deficient in PS1 and PS2 (MEF dKO) were passaged twice per week in DMEM/F-12 medium, consisting of a 1 : 1 mixture of DMEM and F-12 nutrient mixture supplemented with 10% fetal bovine serum, penicillin, and streptomycin. For expression of human presenilin-1 in MEF dKO cells, the full length human presenilin-1 cDNA open reading frame was cloned between the BamHI and XhoI sites of the vector pcDNA5/FRT (Invitrogen), placing presenilin-1 expression under the control of the CMV promoter. The M146V mutated allele was introduced into the presenilin-1 expression construct by polymerase chain reaction using the oligonucleotide primers 5′-[…]-3′ and 5′-[…]-3 (QuikChange kit, Invitrogen). MEF dKO cultures were cotransfected with DNA constructs expressing APP-CTF, encoding the C-terminal 99 amino acids of APP [61] and either the human presenilin-1 or presenilin-1 M146V allele. Transfected cultures were incubated overnight at 37°C in 5% CO2 atmosphere and then harvested, resuspended in DMEM/F-12 medium, dispensed into 96-well culture plates, and incubated for 6 hours at 37°C in 5% CO2 atmosphere. Culture medium was then replaced with Ultraculture serum free medium (Lonza, Rockland, ME) with or without compounds at a range of concentrations and incubated overnight.
(§5) IC50 determinations for Aβ1-42 and Aβ1-40 in H4-APPsw cultures in 384-well format were determined using homogeneous time-resolved fluorescence immunoassays as previously described. The principle of these assays is illustrated in Figures 1(c) and 1(d). In other experiments using H4-APPsw cultures, Aβ was quantified by ELISA; for Aβ1-42 the combination of monoclonal antibodies was 26D6 and 565-HRP; for Aβ1-40 it was TSD and 26D6-HRP, and for Aβ1-x it was 4G8 and 26D6-HRP. In some experiments a novel 4-plex Aβ electrochemiluminescence immunoassay was used (Mesoscale Discovery catalog number N45ZA-1). Briefly, the 4-plex was carried out in 96-well format, with 4 separate spots of capture antibodies in each well. […] For Aβ in transiently transfected PS1/PS2 dKO fibroblasts, Aβ1-42 was quantified using an ELISA kit (WACO), and Aβ1-40 was quantified by ELISA as described above for H4-APPsw cultures. […] For the rat and mouse experiments illustrated in Figures 7 and 8, brain samples were prepared by solid phase extraction, and endogenous rat brain Aβ1-42 and Aβ1-40 were quantified by ELISA as previously described for wild type mice. […]

Experiment [3] has as its system mNotch1ΔE. Briefly: Notch signaling CBF1-luciferase reporter assay in HeLa cells transfected with mNotch1ΔE. The experiment is classed as cell-based. As to the method:
as §1, §2, §3
Background: Reporter assays use an easily measured gene product as a stand-in for the process of interest.

Experiment [4] deals with Aβ1-40 (H4-APPsw). The experiment is described as follows: Aβ1-40 time-resolved fluorescence immunoassay in H4-APPsw cell cultures. The experiment is classed as cell-based, human. The conditions noted are these: Homo sapiens; H4-APPsw cultures treated overnight. As for the experimental part: as §4, §5

Regarding `C[C@H](NC(=O)[C@@H](O)c1cc(F)cc(F)c1)C(=O)N[C@@H]1C(=O)N(C)N=Cc2ccccc21` [BMS-433796, (S)-2-((S)-2-(3,5-difluorophenyl)-2-hydroxyacetamido)-N-((S,Z)-3-methyl-4-oxo-4,5-dihydro-3H-benzo[d][1,2]diazepin-5-yl)propanamide, reference compound], the NICD levels result in experiment [1] is on record as “greatly reduced NICD”. The half-inhibitory concentration (IC50) – broadly, the concentration that gives 50% inhibition – turned out to be 160 pM in experiment [2]; 2100 pM in experiment [3] (HeLa, treated overnight); 190 pM in experiment [4]. Also, the “Notch/Aβ1-42 IC50 ratios” value in experiment [3] (GSIs) is 13. For the same compound, the mNotch1ΔE/Aβ1-42 in experiment [3] (ratio of IC50 values) was 13x.
